Values joined by “and” are separate entries in the source; they are usually repeats but may differ in a detail not shown here. Equal values may be shown once. Read-outs that look alike come from different tables or passages of the source.
What was measured:
[1] = biological target: hDYRK1A (Homo sapiens, UniProt Q13627); assay: DYRK1A Human CMGC Kinase Enzymatic Radiometric Assay [Km ATP]; type: biochemical
[2] = biological target: hCLK1 (Homo sapiens, UniProt P49759); assay: CLK1 Human CMGC Kinase Enzymatic Radiometric Assay [Km ATP]; type: biochemical
Sequence of hCLK1 (P49759 whole entry): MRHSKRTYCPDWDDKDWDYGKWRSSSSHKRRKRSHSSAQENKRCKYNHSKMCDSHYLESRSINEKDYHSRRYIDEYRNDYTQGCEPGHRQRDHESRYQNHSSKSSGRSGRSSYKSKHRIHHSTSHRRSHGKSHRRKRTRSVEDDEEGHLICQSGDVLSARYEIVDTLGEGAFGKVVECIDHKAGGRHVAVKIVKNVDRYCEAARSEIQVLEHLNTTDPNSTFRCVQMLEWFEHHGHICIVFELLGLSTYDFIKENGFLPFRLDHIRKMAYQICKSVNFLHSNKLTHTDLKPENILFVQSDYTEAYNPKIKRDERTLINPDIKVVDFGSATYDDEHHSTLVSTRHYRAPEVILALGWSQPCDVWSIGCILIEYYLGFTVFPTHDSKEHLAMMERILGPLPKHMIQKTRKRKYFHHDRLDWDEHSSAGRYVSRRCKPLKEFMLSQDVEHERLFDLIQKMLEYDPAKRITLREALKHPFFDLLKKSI

[3] = tested on: CLK1; design: method as in PMID 20981014, PMID 15010457; conditions: cited from earlier work
[4] = In vitro DPPH radical scavenging assay; conditions: methanol, 37 °C, 40 min, absorbance at 517 nm
Experimental: Finally, the aptitude of 1p to act as a free radical scavenger was assessed using the rapid, inexpensive and widely used DPPH^• (2,2-diphenyl-1-picrylhydrazyl) scavenging method. Dark purple DPPH^• is a stable free radical that can accept an electron or hydrogen to become a stable diamagnetic molecule with the loss of violet color. […] Thus, this novel class of hDYRK1A/hCLK1 inhibitors are all the more interesting that they may also potentially display an additional antioxidant activity to combat oxidative stress in AD.
Figure 1. In vitro stability of 1p in various non-oxidazing and oxidazing media.
III – In vitro DPPH radical scavenging assay
DPPH radical scavenging activity was determined according to the method described by Blois.5 0.5 mL of 0.1 mM DPPH radical solution in methanol was mixed with 1.5 mL of various concentrations in methanol of 1p. The mixture was then thoroughly vortexed for 5s and each antioxidant-DPPH radical reaction mixture is kept in the test tubes in the dark at 37 °C for 40 min (time point by which all reactions should have reached steady state) and transferred to a cuvette for absorbance measurement at 517 nm. For the baseline control, 1.5 mL of methanol was used. […] Percentage of inhibition was calculated using the equation [(A0−A1)/A0] × 100 where A0 was the absorbance of the control and A1 was the absorbance in the presence of the compound. […]

[5] = in vitro; conditions: PAMPA, pH 7.4
[6] = In vitro stability/oxidation of 1p to 2p in PBS, NAD+, H2O2 and riboflavin solutions (HPLC-UV); type: physicochemical; conditions: 25 μM 1p
[7] = Solubility of 1p in PBS (HPLC); type: physicochemical; conditions: aqueous buffer, kinetic from dmso stock; PBS pH 7.4, 24 h at 20 °C; read-out: Experimental solubility in PBS
[8] = tested on: DYRK1A; conditions: cited from earlier work
[9] = radiometric assay, Km ATP, read-out: IC50 hDYRK1A
[10] = radiometric assay, Km ATP, read-out: IC50 hCLK1
[11] = compared with N-methyl dihydroquinoline 1h
[12] = quinolinium salt and quinoline intermediates, read-out: IC50 hDYRK1A (synthetic intermediates)
[13] = quinolinium salt and quinoline intermediates, read-out: IC50 hCLK1 (synthetic intermediates)

SMILES | melting point | IC50 [1, 9] | IC50 [2, 10] | further results
CCOC(=O)C1=CN(C)c2cc(OC)ccc2C1 [Compound 1k, Ethyl 7-methoxy-1-methyl-1,4-dihydroquinoline-3-carboxylate] | 93 to 94 °C | > 10 µM | 3.16 ± 0.525 µM | –
COc1ccc2c(c1)N(Cc1ccccc1)C=C(C(C)=O)C2 [Compound 1n, 1-(1-Benzyl-7-methoxy-1,4-dihydroquinolin-3-yl)ethanone] | 129 to 130 °C | 3.02 ± 0.15 µM | 0.595 ± 0.063 µM | –
COc1ccc2c(c1)N(C)C=C(C(C)=O)C2 [Compound 1h, 1-(7-Methoxy-1-methyl-1,4-dihydroquinolin-3-yl)ethanone] | 99 to 100 °C | 0.385 ± 0.13 µM | 0.377 ± 0.158 µM | –
CCN1/C(=C/C(C)=O)Sc2ccc(O)cc21 [INDY, (Z)-1-(3-Ethyl-5-hydroxy-2(3H)-benzothiazolylidene)-2-propanone] | – | – | – | CLK1 % inhibition ([3]; at 10 μM): 99%
COC(=O)C1=CN(C)c2cc(OC)ccc2C1 [Compound 1j, Methyl 7-methoxy-1-methyl-1,4-dihydroquinoline-3-carboxylate] | 95 to 96 °C | > 10 µM | 1.46 ± 0.253 µM | –
CC(=O)C1=CN(C)c2ccc(Cl)cc2C1 [Compound 1e, 1-(6-Chloro-1-methyl-1,4-dihydroquinolin-3-yl)ethanone] | 124 to 125 °C | > 10 µM | > 10 µM | –
CC(=O)C1=CN(C)c2cc(N(C)C)ccc2C1 [Compound 1c, 1-(7-(Dimethylamino)-1-methyl-1,4-dihydroquinolin-3-yl)ethanone] | 126 to 127 °C | > 10 µM | > 10 µM | –
CCCN1C=C(C(C)=O)Cc2ccc(OC)cc21 [Compound 1p, 1-(7-Methoxy-1-propyl-1,4-dihydroquinolin-3-yl)ethanone] | 98 to 99 °C | 0.153 ± 0.044 µM | 0.047 ± 0.013 µM | EC50 [4]: 128 µM; Papp at 4 h, 100 µM [5]: 20 ± 0.9 ×10⁻⁶ cm/s; % formed 2p after incubation at 37 °C ([6]; 0.1% H2O2 in PBS, after 3.5 h): 13%; % formed 2p after incubation at 37 °C ([6]; 0.1% H2O2 in PBS, after 24 h): 53%; % formed 2p after incubation at 37 °C ([6]; 0.1% riboflavin in PBS, after 3.5 h (in less than 3.5 h)): 100%; % formed 2p after incubation at 37 °C ([6]; 0.2% NAD+ in PBS, after 3.5 h): 5%; % formed 2p after incubation at 37 °C ([6]; 0.2% NAD+ in PBS, after 24 h): 16%; % formed 2p after incubation at 37 °C ([6]; 2% NAD+ in PBS, after 3.5 h): 24%; % formed 2p after incubation at 37 °C ([6]; 2% NAD+ in PBS, after 24 h): 77%; % formed 2p after incubation at 37 °C ([6]; PBS pH 7.4, after 3.5 h): 3%; % formed 2p after incubation at 37 °C ([6]; PBS pH 7.4, after 24 h): 8%; fold more potent than 1h toward hDYRK1A [1, 11]: 2.5 fold; solubility at 24 h [7]: 600 µM and 147 µg/mL; fold more potent than 1h toward hCLK1 [2, 11]: 8 fold
CC(=O)C1=CN(C)c2cc(C(F)(F)F)ccc2C1 [Compound 1b, 1-(1-Methyl-7-(trifluoromethyl)-1,4-dihydroquinolin-3-yl)ethanone] | 141 to 142 °C | > 10 µM | > 10 µM | –
COc1ccc2c(c1)N(CCc1ccccc1)C=C(C(C)=O)C2 [Compound 1o, 1-(7-Methoxy-1-phenethyl-1,4-dihydroquinolin-3-yl)ethanone] | 92 to 93 °C | 1.11 ± 0.203 µM | 0.122 ± 0.012 µM | –
COc1cc2c(cc1OC)N(C)C=C(C(C)=O)C2 [Compound 1f, 1-(6,7-Dimethoxy-1-methyl-1,4-dihydroquinolin-3-yl)ethanone] | 235 to 236 °C | > 10 µM | > 10 µM | –
CC(=O)C1=CN(C)c2cc(Br)ccc2C1 [Compound 1d, 1-(7-Bromo-1-methyl-1,4-dihydroquinolin-3-yl)ethanone] | 179 to 180 °C | > 10 µM | > 10 µM | –
COc1ccc2cc(C(C)=O)c[n+](C)c2c1.[I-] [Compound 2h, 3-Acetyl-7-methoxy-1-methylquinolin-1-ium iodide] | 223 to 224 °C | – | – | IC50 [1, 12]: > 10 µM; IC50 [2, 13]: > 10 µM
COc1ccc2c(c1)N(C)C=C(C(=O)N(C)C)C2 [Compound 1l, 7-Methoxy-N,N,1-trimethyl-1,4-dihydroquinoline-3-carboxamide] | 219 to 220 °C | > 10 µM | > 10 µM | –
COc1ccc2c(c1)N(C)C=C(C#N)C2 [Compound 1i, 7-Methoxy-1-methyl-1,4-dihydroquinoline-3-carbonitrile] | 127 to 128 °C | > 10 µM | > 10 µM | –
COc1ccc2cc(C(C)=O)cnc2c1 [Compound 6h, 3-Acetyl-7-methoxyquinoline] | 129 to 130 °C | – | – | IC50 [1, 12]: > 10 µM; IC50 [2, 13]: > 10 µM
CC(=O)C1=CN(C)c2ccccc2C1 [Compound 1a, 1-(1-Methyl-1,4-dihydroquinolin-3-yl)ethanone] | – | > 10 µM | > 10 µM | –
COc1ccc2c(c1)N(C)C=C(C(=O)N(C)OC)C2 [Compound 1m, N,7-Dimethoxy-N,1-dimethyl-1,4-dihydroquinoline-3-carboxamide] | – | > 10 µM | > 10 µM | –
CCN1/C(=C/C(C)=O)Sc2ccc(OC(C)=O)cc21 [ProINDY] | – | – | – | DYRK1A % inhibition ([8]; at 10 μM): 26.1%
CCC[n+]1cc(C(C)=O)cc2ccc(OC)cc21.[Br-] | 183 to 184 °C | – | – | –
CC(=O)C1=CN(C)c2cc3c(cc2C1)OCO3 [Compound 1g, 1-(5-Methyl-5,8-dihydro-[1,3]dioxolo[4,5-g]quinolin-7-yl)ethanone] | 152 to 153 °C | > 10 µM | > 10 µM | –

From publication PMC9822041 (Molecules, 2022)
